Source: ChEMBL document CHEMBL5500389, “Discovery of the Selective and Orally Available Galectin-1 Inhibitor GB1908 as a Potential Treatment for Lung Cancer” (J Med Chem, 2024)
The source made the active and inactive calls. The calls are words filed in the database; no cut-off is given here.

Columns and labels:
[1] = Efflux ratio of apparent permeability across apical to basal side over basal to apical side in human Caco-2 cells at 10 uM incubated for 90 mins by LC-MS/MS analysis
[2] = physchem; details: octanol/potassium phosphate buffer, pH 7.4
[3] = Apparent permeability across basal to apical side in human Caco-2 cells at 10 uM incubated for 90 mins by LC-MS/MS analysis
[4] = molecular target: T1, Galectin-1 (Homo sapiens, UniProt P09382); assay: Binding affinity to human galectin-1 assessed as dissociation constant by fluorescein probe based fluorescence polarization assay
[5] = Apparent permeability across apical to basal side in human Caco-2 cells at 10 uM incubated for 90 mins by LC-MS/MS analysis
[6] = molecular target: T2, Galectin-1 (Mus musculus, UniProt P16045); assay: Binding affinity to mouse galectin-1 assessed as dissociation constant by fluorescein probe based fluorescence polarization assay
[7] = Cmax in C57BL/6 mouse at 30 mg/kg, po measured for 24 hrs by HPLC analysis; type: ADME, organism-based; details: in vivo
[8] = Oral bioavailability in C57BL/6 mouse at 30 mg/kg measured for 24 hrs by HPLC analysis; type: ADME, organism-based; details: in vivo
[9] = molecular target: T3, Galectin-8 (Homo sapiens, UniProt O00214); assay: Inhibition of N-terminal human galectin-8 by competitive fluorescence polarization assay
T3 sequence (O00214 whole entry): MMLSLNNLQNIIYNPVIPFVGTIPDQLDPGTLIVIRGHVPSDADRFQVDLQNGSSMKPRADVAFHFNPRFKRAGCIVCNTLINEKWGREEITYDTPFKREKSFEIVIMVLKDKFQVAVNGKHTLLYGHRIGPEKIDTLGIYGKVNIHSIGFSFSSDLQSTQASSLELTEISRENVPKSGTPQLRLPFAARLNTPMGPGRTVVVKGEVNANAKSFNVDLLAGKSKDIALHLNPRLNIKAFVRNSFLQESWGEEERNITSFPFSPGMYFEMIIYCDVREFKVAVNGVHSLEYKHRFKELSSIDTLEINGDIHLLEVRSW

[10] = test system: Lewis lung carcinoma; assay: Antitumor activity against mouse LL2 cells allografted in syngeneic mouse C57BL/6N assessed as inhibition of tumor growth at 30 mg/kg, po bid administered via gavage measured for 3 to 21 days; type: functional, organism-based; details: time 3-21 day
[11] = molecular target: T4, Galectin-3 (Homo sapiens, UniProt P17931); assay: Binding affinity to CM3 chip-immobilized full-length human galectin-3 assessed as dissociation constant by SPR analysis
[12] = AUC (infinity) in C57BL/6 mouse at 30 mg/kg, po measured for 24 hrs by HPLC analysis; type: ADME, organism-based; details: in vivo
[13] = molecular target: T5, Galectin-3 (Mus musculus, UniProt P16110); assay: Binding affinity to mouse galectin-3 assessed as dissociation constant by fluorescein probe based fluorescence polarization assay
[14] = Volume of distribution at steady state in C57BL/6 mouse at 1 mg/kg, iv measured for 24 hrs by HPLC analysis; type: ADME, organism-based; details: in vivo, read-out: Vdss
[15] = test system: Jurkat; assay: Inhibition of apoptosis in galectin-3-induced human Jurkat cells measured after 16 hrs by caspase-3/7 green fluorescence based analysis
[16] = molecular target: T6, Galectin-4 (Homo sapiens, UniProt P56470); assay: Inhibition of C-terminal human galectin-4 by competitive fluorescence polarization assay
T6 sequence (P56470 whole entry): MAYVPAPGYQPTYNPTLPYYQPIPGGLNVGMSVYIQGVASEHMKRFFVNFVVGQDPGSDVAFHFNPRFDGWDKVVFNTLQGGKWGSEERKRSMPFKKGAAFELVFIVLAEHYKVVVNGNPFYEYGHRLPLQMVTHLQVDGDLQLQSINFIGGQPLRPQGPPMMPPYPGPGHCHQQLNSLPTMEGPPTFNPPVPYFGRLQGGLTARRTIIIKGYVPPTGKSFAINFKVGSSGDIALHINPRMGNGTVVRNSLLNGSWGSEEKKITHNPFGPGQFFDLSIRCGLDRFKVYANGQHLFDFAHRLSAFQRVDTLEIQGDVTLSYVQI

[17] = test system: Jurkat; assay: Inhibition of apoptosis in galectin-1-induced human Jurkat cells measured after 16 hrs by caspase-3/7 green fluorescence based analysis
[18] = molecular target: T3, Galectin-8; assay: Inhibition of C-terminal human galectin-8 by competitive fluorescence polarization assay
[19] = test system: A549; assay: Cytotoxicity against human A549 cells assessed as reduction in cell viability at >90 uM by MTT assay relative to control; type: functional
[20] = molecular target: T7, Galectin-9 (Homo sapiens, UniProt O00182); assay: Inhibition of N-terminal human galectin-9 by competitive fluorescence polarization assay
[21] = molecular target: T6, Galectin-4; assay: Inhibition of N-terminal human galectin-4 by competitive fluorescence polarization assay
[22] = molecular target: T2, Galectin-1; assay: Binding affinity to CM3 chip-immobilized full-length mouse galectin-1 assessed as dissociation constant by SPR analysis
[23] = Stability in mouse hepatocytes assessed as hepatic intrinsic clearance at 2 uM measured per million cells for 15 to 120 mins by LC-MS/MS analysis; type: ADME, cell-based, Hepatocyte; details: time 15-120 min, read-out: CLH
[24] = molecular target: T1, Galectin-1; assay: Binding affinity to CM3 chip-immobilized full-length human galectin-1 assessed as dissociation constant by SPR analysis
[25] = Tmax in C57BL/6 mouse at 30 mg/kg, po measured for 24 hrs by HPLC analysis; type: ADME, organism-based; details: in vivo
[26] = Stability in human hepatocytes assessed as hepatic intrinsic clearance at 2 uM measured per million cells for 15 to 120 mins by LC-MS/MS analysis; type: ADME, cell-based, Hepatocyte; details: time 15-120 min, read-out: CLH
[27] = Unbound fraction in mouse plasma at 1 uM incubated for 5 hrs by equilibrium dialysis method; type: ADME, cell-free
[28] = molecular target: Galectin-7 (Homo sapiens, UniProt P47929); assay: Inhibition of human galectin-7 by competitive fluorescence polarization assay
[29] = Clearance in C57BL/6 mouse at 1 mg/kg, iv measured for 24 hrs by HPLC analysis; type: ADME, organism-based; details: in vivo
[30] = molecular target: T4, Galectin-3; assay: Inhibition of human galectin-3 by competitive fluorescence polarization assay
[31] = molecular target: T5, Galectin-3; assay: Binding affinity to CM3 chip-immobilized full-length mouse galectin-3 assessed as dissociation constant by SPR analysis
[32] = test system: Lewis lung carcinoma; assay: Antitumor activity against mouse LL2 cells allografted in syngeneic mouse C57BL/6N assessed as reduction in tumor volume at 30 mg/kg, po bid administered via gavage measured after 10 days; type: functional, organism-based; details: time 10.0 day
[33] = molecular target: T7, Galectin-9; assay: Inhibition of C-terminal human galectin-9 by competitive fluorescence polarization assay
[34] = Unbound fraction in human plasma at 1 uM incubated for 5 hrs by equilibrium dialysis method; type: ADME, cell-free
[35] = molecular target: T4, Galectin-3; assay: Binding affinity to human galectin-3 assessed as dissociation constant by competitive fluorescence polarization assay
[36] = molecular target: T5, Galectin-3; assay: Binding affinity to mouse galectin-3 assessed as dissociation constant by competitive fluorescence polarization assay
[37] = molecular target: T1, Galectin-1; assay: Binding affinity to human galectin-1 assessed as dissociation constant by competitive fluorescence polarization assay
[38] = molecular target: T1, Galectin-1; assay: Binding affinity to human galectin-1 assessed as dissociation constant by fluorescence polarization assay
[39] = molecular target: T2, Galectin-1; assay: Binding affinity to mouse galectin-1 assessed as dissociation constant by competitive fluorescence polarization assay

T1 sequence (P09382 whole entry): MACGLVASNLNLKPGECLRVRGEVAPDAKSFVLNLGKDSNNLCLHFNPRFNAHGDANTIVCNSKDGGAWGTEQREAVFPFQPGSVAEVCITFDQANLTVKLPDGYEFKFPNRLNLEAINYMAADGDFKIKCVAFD
T4 sequence (P17931 whole entry): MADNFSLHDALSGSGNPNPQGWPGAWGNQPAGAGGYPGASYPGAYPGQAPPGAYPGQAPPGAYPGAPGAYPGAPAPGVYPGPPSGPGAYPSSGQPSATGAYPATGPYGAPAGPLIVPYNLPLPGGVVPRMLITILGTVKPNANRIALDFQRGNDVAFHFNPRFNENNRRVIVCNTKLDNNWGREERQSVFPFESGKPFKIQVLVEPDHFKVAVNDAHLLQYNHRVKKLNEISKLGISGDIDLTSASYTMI
T2 sequence (P16045 whole entry): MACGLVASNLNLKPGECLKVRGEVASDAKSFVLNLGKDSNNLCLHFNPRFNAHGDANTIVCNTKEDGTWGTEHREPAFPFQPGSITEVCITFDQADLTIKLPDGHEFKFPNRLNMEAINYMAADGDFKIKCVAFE
T5 sequence (P16110 whole entry): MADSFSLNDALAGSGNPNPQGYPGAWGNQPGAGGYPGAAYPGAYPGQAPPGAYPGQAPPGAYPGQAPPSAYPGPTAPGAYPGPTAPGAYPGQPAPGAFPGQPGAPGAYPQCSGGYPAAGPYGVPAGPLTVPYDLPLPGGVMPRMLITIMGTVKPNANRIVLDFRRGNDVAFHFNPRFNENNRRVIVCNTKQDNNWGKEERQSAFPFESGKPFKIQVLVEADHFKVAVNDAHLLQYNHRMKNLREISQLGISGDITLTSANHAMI
T7 sequence (O00182 whole entry): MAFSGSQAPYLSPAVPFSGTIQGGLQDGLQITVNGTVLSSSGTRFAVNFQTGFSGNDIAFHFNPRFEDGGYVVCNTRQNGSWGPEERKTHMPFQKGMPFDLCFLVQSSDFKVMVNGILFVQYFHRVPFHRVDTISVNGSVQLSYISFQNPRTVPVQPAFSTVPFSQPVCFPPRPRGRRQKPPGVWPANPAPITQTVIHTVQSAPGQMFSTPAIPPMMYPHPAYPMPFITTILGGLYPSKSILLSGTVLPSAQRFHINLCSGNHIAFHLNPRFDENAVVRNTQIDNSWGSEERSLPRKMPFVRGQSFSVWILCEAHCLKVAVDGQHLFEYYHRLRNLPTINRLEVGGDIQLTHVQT
Galectin-7, sequence (P47929 whole entry): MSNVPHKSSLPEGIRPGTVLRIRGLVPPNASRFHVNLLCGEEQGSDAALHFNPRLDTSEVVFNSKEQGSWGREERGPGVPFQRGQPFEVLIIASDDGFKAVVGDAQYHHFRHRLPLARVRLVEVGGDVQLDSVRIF

Question: Which efflux ratio at 1.5 h, 10 µM [1] does the source give for `OC[C@H]1O[C@H](Sc2cc(Cl)c(F)c(Cl)c2)[C@H](O)[C@@H](n2cc(-c3csc(O)n3)nn2)[C@H]1O` here?
Answer: Its efflux ratio at 1.5 h, 10 µM is 117.

Question: And the logD at 1 h [2]?
Answer: Its logD at 1 h is 2.8.

Question: What about the Papp B→A at 1.5 h, 10 µM [3] of the same compound?
Answer: The Papp B→A at 1.5 h, 10 µM was 35 ×10⁻⁶ cm/s.

Question: What about the Kd [4] of the same compound?
Answer: Its Kd is 80 nM.

Question: What about the Papp A→B at 1.5 h, 10 µM [5] of the same compound?
Answer: Its Papp A→B at 1.5 h, 10 µM is 0.3 ×10⁻⁶ cm/s.

Question: Which efflux ratio at 1.5 h, 10 µM [1] does the source give for `CN(C)c1nc(-c2cn([C@@H]3[C@@H](O)[C@@H](Sc4cc(Cl)c(F)c(Cl)c4)O[C@H](CO)[C@@H]3O)nn2)cs1` here?
Answer: Its efflux ratio at 1.5 h, 10 µM is 87.

Question: What about the logD at 1 h [2] of the same compound?
Answer: The logD at 1 h was 3.8.

Question: What about the Papp B→A at 1.5 h, 10 µM [3] of the same compound?
Answer: The Papp B→A at 1.5 h, 10 µM was 52 ×10⁻⁶ cm/s.

Question: And the Kd [4]?
Answer: Its Kd is 3430 nM.

Question: What about the Papp A→B at 1.5 h, 10 µM [5] of the same compound?
Answer: Its Papp A→B at 1.5 h, 10 µM is 0.6 ×10⁻⁶ cm/s.

Question: With `Nc1csc(-c2cn([C@@H]3[C@@H](O)[C@@H](Sc4cc(Cl)c(F)c(Cl)c4)O[C@H](CO)[C@@H]3O)nn2)n1` as the compound, how does the efflux ratio at 1.5 h, 10 µM [1] read?
Answer: Its efflux ratio at 1.5 h, 10 µM is 14.

Question: What about the logD at 1 h [2] of the same compound?
Answer: The logD at 1 h was 2.5.

Question: And the Papp B→A at 1.5 h, 10 µM [3]?
Answer: Its Papp B→A at 1.5 h, 10 µM is 42 ×10⁻⁶ cm/s.

Question: And the Kd [4]?
Answer: Its Kd is 620 nM.

Question: What about the Papp A→B at 1.5 h, 10 µM [5] of the same compound?
Answer: Its Papp A→B at 1.5 h, 10 µM is 3.1 ×10⁻⁶ cm/s.

Question: Which efflux ratio at 1.5 h, 10 µM [1] does the source give for `OC[C@H]1O[C@H](Sc2cc(Cl)c(F)c(Cl)c2)[C@H](O)[C@@H](n2cc(-c3nccs3)nn2)[C@H]1O` here?
Answer: Its efflux ratio at 1.5 h, 10 µM is 2.8.

Question: Which results are given for `CO[C@@H]1[C@@H](n2cc(-c3csc(O)n3)nn2)[C@@H](O)[C@@H](CO)O[C@@H]1Sc1ccc(Cl)c(Cl)c1`?
Answer: Kd [6]: 72 nM; Cmax [7]: 19500 ng/mL; bioavailability [8]: > 99.9%; Kd [9]: 80600 nM; inhibition [10]: Active; Kd [11]: 20500 nM; AUC(0-inf) [12]: 148 µg·h/mL; Kd [13]: 4200 nM; Vd [14]: 0.4 L/kg; IC50 [15]: > 8000 nM; Kd [16]: 460 nM; IC50 [17]: 850 nM; logD at 1 h [2]: 3.2; Kd [18]: 92400 nM; Papp B→A at 1.5 h, 10 µM [3]: 48 ×10⁻⁶ cm/s; Activity [19]: 48%; Kd [20]: 18600 nM; Kd [21]: 15000 nM; Kd [22]: 90 nM; hepatocyte CLint at 2 µM [23]: < 1.5 µL/min/1e6 cells; Kd [24]: 80 nM; Tmax [25]: 2 h; hepatocyte CLint at 2 µM [26]: < 1.5 µL/min/1e6 cells; fraction unbound at 5 h, 1 µM [27]: 0.007; Kd [28]: 92700 nM; clearance [29]: 3.7 mL/min/kg; Kd [30]: 6000 nM; Kd [31]: 8200 nM; Papp A→B at 1.5 h, 10 µM [5]: 4 ×10⁻⁶ cm/s; Activity [32]: Active; Kd [33]: 17500 nM; fraction unbound at 5 h, 1 µM [34]: 0.005

Question: Which efflux ratio at 1.5 h, 10 µM [1] does the source give for `CNc1nc(-c2cn([C@@H]3[C@@H](O)[C@@H](Sc4cc(Cl)c(F)c(Cl)c4)O[C@H](CO)[C@@H]3O)nn2)cs1` here?
Answer: Its efflux ratio at 1.5 h, 10 µM is over 192.

Question: What about the logD at 1 h [2] of the same compound?
Answer: Its logD at 1 h is 2.9.

Question: And the Papp B→A at 1.5 h, 10 µM [3]?
Answer: Its Papp B→A at 1.5 h, 10 µM is 46 ×10⁻⁶ cm/s.

Question: And the Kd [4]?
Answer: The Kd was 1360 nM.

Question: What about the Papp A→B at 1.5 h, 10 µM [5] of the same compound?
Answer: The Papp A→B at 1.5 h, 10 µM was under 0.24 ×10⁻⁶ cm/s.

Question: Which results are given for `OC[C@H]1O[C@@H](S[C@@H]2O[C@H](CO)[C@H](O)[C@H](n3cc(-c4csc(O)n4)nn3)[C@H]2O)[C@H](O)[C@@H](n2cc(-c3cc(F)c(F)c(F)c3)nn2)[C@H]1O`?
Answer: Kd [35]: 1 nM; Kd [36]: 34 nM; Kd [37]: 4 nM

Question: Which results are given for `O=C(N[C@H]1[C@@H](O)[C@@H](CO)O[C@@H](S[C@@H]2O[C@H](CO)[C@H](O)[C@H](n3cc(-c4csc(O)n4)nn3)[C@H]2O)[C@@H]1O)c1ccc2c(c1)C(=O)OC21c2ccc(O)cc2Oc2cc(O)ccc21`?
Answer: Kd [38]: 20 nM; Kd [39]: 29 nM
